These results are taken from patent US20250339542A1, “CONVERSION OF A BIOLOGICALLY SILENT MIRNA BINDING SMALL MOLECULE TO AN MIRNA DEGRADER” (University of Florida Research Foundation, Incorporated, priority 2020, published 2025).

Entries after “also recorded” stand apart in the source; their conditions may differ.

For one assay, the target named is T1, RNase L / pre-miR-155 (Homo sapiens, UniProt Q05823).
T1 construct: RNase L was immunoprecipitated from MDA-MB-231 cells; endogenous in cells; host or cells: MDA-MB-231
T1 sequence (Q05823 1-741): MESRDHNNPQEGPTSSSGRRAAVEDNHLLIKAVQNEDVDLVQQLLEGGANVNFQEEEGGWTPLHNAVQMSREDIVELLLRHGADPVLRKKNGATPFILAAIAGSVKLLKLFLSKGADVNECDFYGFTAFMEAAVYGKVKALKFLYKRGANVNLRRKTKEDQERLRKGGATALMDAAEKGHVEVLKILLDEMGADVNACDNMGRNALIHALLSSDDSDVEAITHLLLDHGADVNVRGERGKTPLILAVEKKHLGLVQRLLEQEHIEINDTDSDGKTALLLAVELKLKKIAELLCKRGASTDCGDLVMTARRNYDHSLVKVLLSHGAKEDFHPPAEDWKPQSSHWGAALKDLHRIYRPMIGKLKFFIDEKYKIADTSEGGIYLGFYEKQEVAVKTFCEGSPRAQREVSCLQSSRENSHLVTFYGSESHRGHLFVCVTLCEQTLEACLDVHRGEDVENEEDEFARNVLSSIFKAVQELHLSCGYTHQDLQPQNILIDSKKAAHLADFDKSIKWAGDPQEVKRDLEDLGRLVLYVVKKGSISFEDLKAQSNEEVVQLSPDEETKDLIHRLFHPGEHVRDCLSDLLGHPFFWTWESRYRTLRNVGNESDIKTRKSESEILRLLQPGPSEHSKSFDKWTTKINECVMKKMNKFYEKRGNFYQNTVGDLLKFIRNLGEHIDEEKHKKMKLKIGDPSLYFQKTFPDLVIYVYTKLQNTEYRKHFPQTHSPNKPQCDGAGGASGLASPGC
In words: Immunoprecipitation of RNase L from MDA-MB-231 cells, RT-qPCR of pre-miR-155. It counts as cell-based. The note with it: 100 nM, 48 h, relative to untreated. The procedure:
Immunoprecipitation of RNase L. RNase L immunoprecipitation is performed according to published procedures.^16 Briefly, at […], MDA-MB-231 cells were treated with vehicle, 100 nM of 3 or 5 for 48 h. Cells were then washed with DPBS, and detached by scraper. The collected cells were lysed in 100 L of M-PER buffer(78503, Thermo Fisher) containing 1× Protease Inhibitor Cocktail III for Mammalian Cells (Research Products International Corp.) and 80 U of RNaseOUT Recombinant Ribonuclease Inhibitor (Invitrogen) per the manufacture's protocol. The samples were centrifuged at 13,000×g at 4° C. Protein concentration was determined by using a Pierce Mico BCA Protein Assay kit (Fisher Scientific). Approximately 200 g of the total protein per sample was incubated at 4° C. overnight with Dynabeads Protein A (Life Technologies) bound to either RNase L mouse primary antibody (Santa Cruz Biotechnology: sc-74405) or j-actin mouse primary antibody (Cell signaling: 8H10D10). Beads were then washed with 1× DPBST (1× DPBS supplemented with 0.02% Tween-20) for 3 times, after which RNA was extracted by using a miRNeasy Mini Kit (Qiagen) per the manufacturer's instructions. RT-qPCR was performed the same as mentioned above.
(In general: Real-time PCR tracks product formation cycle by cycle.)

Assay [1] has as its system miR-155. In words: RT-qPCR of miR-155 levels in HUVECs. It counts as cell-based, human. The procedure: (§1) Tissue Culture. MDA-MB-231 cells were obtained from ATCC (HTB-26) and cultured in RPMI medium with […] & 25 mM HEPES (Corning) supplemented with 10% FBS (sigma). MCF-10a cells were obtained from ATCC(CRL-10317) and cultured in DMEM/F12 50/50 with glutamine and 15 mM HEPES(Corning) containing 20% FBS(Sigma), 1×Antibiotic-Antimycotic(Corning), 20 ng/mL of human epidermal growth factor(Pepro Tech Inc.), 100 μg/mL of insulin and […] of hydrocortisone (Pfizer &Bauer). HUVECs were cultured in EGM (Lonza) made using the EGM-2 bullet kit (Lonza) per the manufacturers protocol.
(§2) RT-qPCR analysis for Mature, Primary and Precursor miRNAs and mRNA levels. After compound treatment for the indicated time (MDA-MB-231 48 h and HUVECs 24 h), total RNA was extracted using the Zymo Quick-RNA mini prep kit according to the manufacturers protocol. Reverse Transcription (RT) for microRNAs and pri- and pre-miR-155 were done on 200 ng of RNA using the miScript II RT kit (Qiagen) according to the manufacturer's protocol. The mRNAs were done using QScript (Quanta Bio) on 200 ng of total RNA according to the manufacturer's protocol. RT-qPCR was done as mentioned above. The obtained data was analyzed by using the ΔΔCt method as described previously. For the washout experiment, MDA-MB-231 cells were treated with 3 for 48 h. Then the media was changed with fresh growth medium without compound and the cells incubated for 12, 24 and 36 h with RNA harvested and pre-miR-155 levels analyzed as described above.

Assay [2] relates to miR-155. In words: RT-qPCR of mature miR-155 levels in MDA-MB-231 cells. The note with it: 48 h. It counts as cell-based, human. The method, then:
as §1, §2
RT-qPCR analysis for Mature, Primary and Precursor miRNAs and mRNA levels part. Relative RNA expression was determined by using ΔΔCt method with 18S rRNA as an internal control. Normalized fold change was calculated with the equation as below: […]

The next assay relates to pre-miR-155. In words: RT-qPCR of pre-miR-155 levels in HUVECs. It counts as cell-based, human. The method, then:
as §1, §2

As to `CCOC(=O)C1=C(Nc2ccccc2)S/C(=C\c2ccc(O)c(OCCOCCOCCOCCNC(=O)CCc3c(C)n(-c4c(C(C)C)cccc4C(C)C)c[n+]3-c3c(C(C)C)cccc3C(C)C)c2)C1=O` [Compound 5], the “enrichment of pre-miR-155 in RNase L pulldown fractions” value at RNase L / pre-miR-155 is “no enrichment”. In the assay on miR-155 [1], the “effect on miR-155 levels” value was “no effect”. Besides, the “effect on miR-155 levels / miR-155 biogenesis” value in the assay with miR-155 [2] is on record as “no effect; also recorded: does not inhibit”. In the assay with pre-miR-155, the “effect on pre-miR-155 levels” value is “no effect”.
